Data as given in ChEMBL document CHEMBL1201862, “PubChem BioAssay data set” (2004).
“And” between values parts separate entries of the source, which are not always exact repeats. Identical values can stand only once.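 Following 48 hours of exposure in 96-well plates, responses at five concentrations were used to interpolate endpoints linearly. GI50 marks 50% less growth.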 The source made the active and inactive calls. Rule as the data show it: active = GI50 up to about 1.1 µM and inactive = higher.

Legend:
Test in all cases: NCI anticancer screen, dose series, 48 h
A549 = tested on: A549
786-0 = tested on: 786-0
DU-145 = tested on: DU-145
SNB-75 = tested on: SNB-75
NCI-H23 = tested on: NCI-H23
HT-29 = tested on: HT-29
SK-MEL-5 = tested on: SK-MEL-5
Hs-578T = tested on: Hs-578T
SN12C = tested on: SN12C
HOP-92 = tested on: HOP-92
HOP-62 = tested on: HOP-62
OVCAR-8 = tested on: OVCAR-8
LOX IMVI = tested on: LOX IMVI
BT-549 = tested on: BT-549
OVCAR-3 = tested on: OVCAR-3
RXF 393 = tested on: RXF 393
SF-268 = tested on: SF-268
NCI-H460 = tested on: NCI-H460
SK-MEL-28 = tested on: SK-MEL-28
SK-MEL-2 = tested on: SK-MEL-2

Row | Compound | GI50 (A549) | GI50 (786-0) | GI50 (DU-145) | GI50 (SNB-75) | GI50 (NCI-H23) | GI50 (HT-29) | GI50 (SK-MEL-5) | GI50 (Hs-578T) | GI50 (SN12C) | GI50 (HOP-92) | GI50 (HOP-62) | GI50 (OVCAR-8) | GI50 (LOX IMVI) | GI50 (BT-549) | GI50 (OVCAR-3) | GI50 (RXF 393) | GI50 (SF-268) | GI50 (NCI-H460) | GI50 (SK-MEL-28) | GI50 (SK-MEL-2)
1 | COc1cc(/C=C2\C[C@H]3[C@@H]4CC=C5C[C@@H](O)CC[C@]5(C)[C@H]4CC[C@]3(C)C2=O)cc(OC)c1OC | 13.2 µM (inactive) | 26.6 µM (inactive) | 39.1 µM (inactive) | 30.6 µM (inactive) | 35.3 µM (inactive) | 19.9 µM (inactive) | 12.5 µM (inactive) | 40.6 µM (inactive) | 26.1 µM (inactive) | 30.3 µM (inactive) | 26.4 µM (inactive) | 34.6 µM (inactive) | 22 µM (inactive) | 33.4 µM (inactive) | 26.2 µM (inactive) | 19.6 µM (inactive) | 51.5 µM (inactive) | 27.4 µM (inactive) | 45.7 µM (inactive) | 28.8 µM (inactive)
2 | CN(C)/C=C/c1c2c(nc3ccccc13)C(=O)c1cccnc1C2=O | 0.912 µM (active) | 0.226 µM (active) | 0.416 µM (active) | 0.432 µM (active) | 0.592 µM (active) | 2.2 µM (inactive) | 0.151 µM (active) | 1.58 µM (inactive) | 0.532 µM (active) | 2.04 µM (inactive) | 0.0579 µM (active) | 0.407 µM (active) | < 0.01 µM (active) | 0.402 µM (active) | 0.0568 µM (active) | 0.705 µM (active) | 0.41 µM (active) | 0.109 µM (active) | 0.552 µM (active) | 1.62 µM (inactive)
3 | COC(=O)C1Cc2ccc(O)c(O)c2CN1 (stereo not drawn) | > 100 µM (inactive) | 17.5 µM (inactive) | 30.7 µM (inactive) | 19.5 µM (inactive) | 16.6 µM (inactive) | 23.3 µM (inactive) | 15.1 µM (inactive) | 25.4 µM (inactive) | 16.4 µM (inactive) | 26.4 µM (inactive) | > 100 µM (inactive) | > 10 µM (inactive) | 14.8 µM (inactive) | 18.3 µM (inactive) | 35.5 µM (inactive) | > 100 µM (inactive) | > 10 µM (inactive) | 56.9 µM (inactive) | 17.3 µM (inactive) | 16.7 µM (inactive)
4 | O=C1C=CC(=O)C(CNc2ccc(C(=O)OCc3ccccc3)cc2)=C1 | 14.5 µM (inactive) | 3.33 µM (inactive) | 12.2 µM (inactive) | 5.25 µM (inactive) | 10.2 µM (inactive) | 15.2 µM (inactive) | 3.19 µM (inactive) | 6.12 µM (inactive) | 6.18 µM (inactive) | 1.76 µM (inactive) | 17.3 µM (inactive) | 3.98 µM (inactive) | 4.14 µM (inactive) | 2.56 µM (inactive) | 2.4 µM (inactive) | 2.68 µM (inactive) | 6.4 µM (inactive) | 16.9 µM (inactive) | 5.11 µM (inactive) | 14.9 µM (inactive)
5 | O=C(O)c1cc2c(cc1CC(Cc1ccc3c(c1)CCCC3)C(=O)O)CCCC2 (stereo not drawn) | > 100 µM (inactive) | > 100 µM (inactive) | > 100 µM (inactive) | > 100 µM (inactive) | > 100 µM (inactive) | > 100 µM (inactive) | > 100 µM (inactive) | 90.6 µM (inactive) | > 100 µM (inactive) | 83 µM (inactive) | > 100 µM (inactive) | > 100 µM (inactive) | 94.4 µM (inactive) | 59.2 µM (inactive) | > 100 µM (inactive) | 41.5 µM (inactive) | 39.4 µM (inactive) | > 100 µM (inactive) | > 100 µM (inactive) | > 100 µM (inactive)
6 | C\C(=N/N=C1/C(=C\N(C)C)C(=O)NC(=O)N1C)c1ccc(Cl)cc1 | 87.7 µM (inactive) | > 100 µM (inactive) | > 100 µM (inactive) | 32.6 µM (inactive) | > 100 µM (inactive) | > 100 µM (inactive) | > 100 µM (inactive) | > 100 µM (inactive) | > 100 µM (inactive) | > 100 µM (inactive) | > 100 µM (inactive) | > 100 µM (inactive) | 58.2 µM (inactive) | > 100 µM (inactive) | > 100 µM (inactive) | > 100 µM (inactive) | > 100 µM (inactive) | > 100 µM (inactive) | > 100 µM (inactive) | 57.9 µM (inactive)
7 | Cc1ccc(CC(Cc2ccc(C)cc2C(=O)O)C(=O)O)cc1 (stereo not drawn) | > 100 µM (inactive) | > 100 µM (inactive) | > 100 µM (inactive) | > 100 µM (inactive) | > 100 µM (inactive) | > 100 µM (inactive) | > 100 µM (inactive) | > 100 µM (inactive) | > 100 µM (inactive) | > 100 µM (inactive) | > 100 µM (inactive) | > 100 µM (inactive) | > 100 µM (inactive) | > 100 µM (inactive) | > 100 µM (inactive) | > 100 µM (inactive) | > 100 µM (inactive) | > 100 µM (inactive) | > 100 µM (inactive) | > 100 µM (inactive)
8 | CN(NC(=O)/C(=C/C=C/c1ccccc1)NC(=O)c1ccccc1)C1=C(Cl)C(=O)[N+](c2ccccc2)=CC1 | 26.3 µM (inactive) | 19.4 µM (inactive) | 33 µM (inactive) | 21.6 µM (inactive) | 35.4 µM (inactive) | 29.2 µM (inactive) | 14.4 µM (inactive) | 42.7 µM (inactive) | 24.8 µM (inactive) | 20.5 µM (inactive) | 21.7 µM (inactive) | 21.1 µM (inactive) | 17.3 µM (inactive) | 22.5 µM (inactive) | 20.8 µM (inactive) | 20.1 µM (inactive) | 29.6 µM (inactive) | 37.6 µM (inactive) | 16.9 µM (inactive) | 26.2 µM (inactive)
9 | CCOC(=O)Cn1c(=O)ccn(COCCO)c1=O | > 100 µM (inactive) |  | > 100 µM (inactive) | > 100 µM (inactive) | > 100 µM (inactive) | > 100 µM (inactive) | > 100 µM (inactive) | > 100 µM (inactive) | > 100 µM (inactive) | > 100 µM (inactive) | > 100 µM (inactive) | > 100 µM (inactive) | > 100 µM (inactive) | > 100 µM (inactive) | > 100 µM (inactive) | > 100 µM (inactive) | > 100 µM (inactive) | > 100 µM (inactive) | > 100 µM (inactive) | > 100 µM (inactive)
10 | COc1cc2c3cc1Oc1cc(ccc1O)C[C@@H]1c4c(cc(OC)c(O)c4Oc4ccc(cc4)C[C@@H]3N(C)CC2)CC[N+]1(C)C | > 100 µM (inactive) | 55.3 µM (inactive) | 42 µM (inactive) |  | 52 µM (inactive) | 46.5 µM (inactive) | > 100 µM (inactive) | 13.5 µM (inactive) | > 100 µM (inactive) | 11.6 µM (inactive) | 6.95 µM (inactive) | 58.7 µM (inactive) | 17.8 µM (inactive) | > 100 µM (inactive) | 25.7 µM (inactive) | 13.6 µM (inactive) | 32.4 µM (inactive) | 33.3 µM (inactive) | > 100 µM (inactive) | 90.2 µM (inactive)
11 | CC(=O)OC1COC(n2c(N)c(C#N)c(-c3ccccc3)c(C#N)c2=S)C(OC(C)=O)C1OC(C)=O (stereo not drawn) | 71 µM (inactive) and 85.9 µM (inactive) | 36.9 µM (inactive) and 39.3 µM (inactive) | 47.9 µM (inactive) and 38.4 µM (inactive) | 43.4 µM (inactive) and 24.4 µM (inactive) |  | 35.9 µM (inactive) and 43.1 µM (inactive) | 37.9 µM (inactive) and 30.3 µM (inactive) | 45.3 µM (inactive) and 37.4 µM (inactive) | 48.1 µM (inactive) and 36.7 µM (inactive) | 19.8 µM (inactive) and 14.8 µM (inactive) | > 100 µM (inactive) | 31.6 µM (inactive) and 56.8 µM (inactive) | 25.2 µM (inactive) and 27.6 µM (inactive) | 25.6 µM (inactive) and 22.8 µM (inactive) | 28.9 µM (inactive) and 33.2 µM (inactive) | 34.4 µM (inactive) and 33 µM (inactive) | 36 µM (inactive) | 46.8 µM (inactive) and 65.9 µM (inactive) | 55.7 µM (inactive) and 36.6 µM (inactive) | 20 µM (inactive) and 27.2 µM (inactive)
12 | CC1=NN(c2nc(N)nc(CC#N)n2)C(C)(C)C1 |  | > 100 µM (inactive) | > 100 µM (inactive) | > 100 µM (inactive) | > 100 µM (inactive) | > 100 µM (inactive) | > 100 µM (inactive) | > 100 µM (inactive) |  | > 100 µM (inactive) | > 100 µM (inactive) | > 100 µM (inactive) | > 100 µM (inactive) | > 100 µM (inactive) |  | > 100 µM (inactive) | > 100 µM (inactive) | > 100 µM (inactive) | > 100 µM (inactive) | > 100 µM (inactive)
13 | CO/N=C1\CC(NC(=O)C(F)(F)F)c2ccsc21 (stereo not drawn) | > 100 µM (inactive) |  | > 100 µM (inactive) | > 100 µM (inactive) | > 100 µM (inactive) | > 100 µM (inactive) | > 100 µM (inactive) | > 100 µM (inactive) | > 100 µM (inactive) | > 100 µM (inactive) | > 100 µM (inactive) | > 100 µM (inactive) | > 100 µM (inactive) | > 100 µM (inactive) | > 100 µM (inactive) | > 100 µM (inactive) | > 100 µM (inactive) | > 100 µM (inactive) | > 100 µM (inactive) | > 100 µM (inactive)
